Data set [1] has as its target T1, human bile salt export pump (BSEP) efflux transporter (Homo sapiens, UniProt O95342).
T1 construct: purchased SOLVO Biotechnology Charles River Laboratories, Szeged, Hungary; host or cells: HEK293 (inside out membrane vesicles)
Briefly: BSEP Vesicular Transport Inhibition Assay (IC50 determination). The following applies: human BSEP (HEK293) vesicles; taurocholate 0.2 μM; 4 mM Mg-ATP; 10 concentrations, 1 replicate; in nM. It is filed as biochemical. The method in brief:
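Inside-out membrane vesicles from HEK293 cells expressing human BSEP were incubated with taurocholate probe substrate and compound (10 concentrations, single replicate) with 4 mM Mg-ATP, or 4 mM AMP for background, for 5 min at 37 °C. Vesicle-trapped substrate was quantified by liquid scintillation counting after filtration.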

The nature of data set [2]: Example 6 pharmacokinetics assay for PKPD study (plasma, tumor, liver). It is filed as in vivo, BALB/c nude mice. The following applies: mouse, po, single dose. As to the method: For the pharmacokinetic/pharmacodynamic (PKPD) study, compounds were tested in the A375 human melanoma xenografts. Known BRAF inhibitors encorafenib, and dabrafenib were used as positive controls. Encorafenib, dabrafenib, Compound 83, Compound 93, Compound 70, and Compound 54 were administered to BALB/c nude mice bearing A375 tumors on PG-D1 and dosed orally (PO) once. Encorafenib was dosed at 35 mg/kg. Dabrafenib was dosed at 100 mg/kg. Compound 83, Compound 93, Compound 70, and Compound 54 were dosed at 10 mg/kg. The plasma and tumor samples were collected at 1, 6, 12 and 24 hours, and liver samples were collected at 6 hours and 12 hours post the single dose. This study was non-GLP study.
The plasma samples were collected at predetermined time points for PK analysis. The mice were euthanized at predetermined time points post the treatment. The blood samples were collected into the 1.5 mL Eppendorf tubes containing 15 μL of 0.5 M EDTA-K2. And then the anticoagulant blood samples were centrifuged at 2,500 g at 4° C. for 15 minutes. The plasma samples were separated into 2 aliquots. The 1st was used for PK analysis, and the 2nd served as backup. The samples were stored at −80° C. before bioanalysis.
The tumor samples were collected at predetermined time points for PK and WB analysis (B-RAF and p-ERK). The tumor was dissected out and split into 3 parts. The 1st part was used for PK analysis, the 2nd part was used for WB analysis and the last one served as backup for study. The samples were transferred into pre-labeled tubes and quickly froze in liquid nitrogen within 2 minutes after dissection. The samples were stored at −80° C. before bioanalysis.
Liver samples were collected at predetermined time points for PK analysis. The left lobe of the liver was dissected out and split into 2 parts. The 1st part was used for PK analysis and the 2nd part served as the backup for the study. The samples were transferred into pre-labeled tubes and quickly froze in liquid nitrogen within 2 minutes after dissection. The samples were stored at −80° C. before bioanalysis.
For PKPD study, the harvested plasma, tumor and liver were processed for pharmacokinetics analysis by LC/MS/MS with a concentration range of 0.5-1000 ng/mL for Encorafenib and Dabrafenib in plasma, 0.05-100 ng/mL for Encorafenib and Dabrafenib in tumor, 0.2-200 ng/mL for Encorafenib and Dabrafenib in liver, 2.0-2000 ng/mL for compound 93, compound 83, compound 54 and compound 70 in liver, 50.0-50000 ng/mL for compound 83 and compound 70 in plasma, 0.5-1000 ng/mL for compound 83 and compound 70 in tumor, 1.0-2000 ng/mL for compound 93 in plasma, 10.0-20000 ng/mL for compound 54 in plasma, 0.5-500 ng/mL for compound 93 and compound 54 in tumor.

[3] abbreviates: liver, 100 mg/kg, read-out: Concentration in Liver (mean ± SEM).
[4] abbreviates: plasma, 100 mg/kg, read-out: Concentration in Plasma (mean ± SEM).
Setting [5] is: tumor, 100 mg/kg, read-out: Concentration in Tumor (mean ± SEM).
The mark [6] stands for this setting: liver, 35 mg/kg, read-out: Concentration in Liver (mean ± SEM).
[7] abbreviates: plasma, 35 mg/kg, read-out: Concentration in Plasma (mean ± SEM).
The mark [8] stands for this setting: tumor, 35 mg/kg, read-out: Concentration in Tumor (mean ± SEM).

The structures appear in SMILES notation. Read-outs that look alike come from different tables or passages of the source.

T1 sequence (O95342 whole entry): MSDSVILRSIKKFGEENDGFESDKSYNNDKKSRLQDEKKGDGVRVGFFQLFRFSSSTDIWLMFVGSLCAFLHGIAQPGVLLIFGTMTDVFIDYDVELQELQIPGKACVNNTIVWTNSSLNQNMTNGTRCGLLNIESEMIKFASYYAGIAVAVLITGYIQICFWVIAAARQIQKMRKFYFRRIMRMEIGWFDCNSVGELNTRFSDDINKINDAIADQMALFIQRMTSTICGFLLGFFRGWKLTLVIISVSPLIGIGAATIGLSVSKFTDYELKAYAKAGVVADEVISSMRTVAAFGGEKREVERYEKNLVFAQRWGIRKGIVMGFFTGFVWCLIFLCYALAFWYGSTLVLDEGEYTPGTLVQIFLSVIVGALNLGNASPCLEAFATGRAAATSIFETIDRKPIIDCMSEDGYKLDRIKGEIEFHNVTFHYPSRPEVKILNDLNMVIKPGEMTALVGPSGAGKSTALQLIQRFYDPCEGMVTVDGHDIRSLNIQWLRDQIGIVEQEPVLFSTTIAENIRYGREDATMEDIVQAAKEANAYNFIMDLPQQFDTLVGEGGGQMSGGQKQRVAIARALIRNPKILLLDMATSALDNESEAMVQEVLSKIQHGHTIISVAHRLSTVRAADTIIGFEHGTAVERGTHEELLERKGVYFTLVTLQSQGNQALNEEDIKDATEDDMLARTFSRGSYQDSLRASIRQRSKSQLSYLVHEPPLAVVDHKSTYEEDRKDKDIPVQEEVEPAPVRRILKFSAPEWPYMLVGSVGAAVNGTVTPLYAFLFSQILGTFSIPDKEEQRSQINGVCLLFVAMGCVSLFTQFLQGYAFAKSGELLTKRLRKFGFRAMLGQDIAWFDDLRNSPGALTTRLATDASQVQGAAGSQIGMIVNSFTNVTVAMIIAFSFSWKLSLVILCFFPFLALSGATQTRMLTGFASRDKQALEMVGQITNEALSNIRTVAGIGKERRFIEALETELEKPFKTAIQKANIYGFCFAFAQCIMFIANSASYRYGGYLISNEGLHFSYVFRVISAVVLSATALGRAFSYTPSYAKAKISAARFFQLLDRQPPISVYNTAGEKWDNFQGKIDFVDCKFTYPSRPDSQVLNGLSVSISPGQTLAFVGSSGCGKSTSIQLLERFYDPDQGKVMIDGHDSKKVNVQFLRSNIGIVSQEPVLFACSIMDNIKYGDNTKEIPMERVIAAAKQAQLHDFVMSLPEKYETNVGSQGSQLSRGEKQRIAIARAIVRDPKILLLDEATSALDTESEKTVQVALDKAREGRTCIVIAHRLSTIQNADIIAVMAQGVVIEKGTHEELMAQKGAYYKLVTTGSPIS

For the compound `CO[C@@H]1CCN(S(=O)(=O)Nc2ccc(F)c(Oc3ccc4ncn(C5CC6(CCN(C7CC8(C7)CN(c7cc9c(cc7F)c(N7CCC(=O)NC7=O)nn9C)C8)CC6)C5)c(=O)c4c3)c2C#N)C1` (stereo partly drawn) [Compound 269, (3R)-N-[2-cyano-3-[3-[7-[2-[3-(2,4-dioxohexahydropyrimidin-1-yl)-5-fluoro-1-methyl-indazol-6-yl]-2-azaspiro[3.3]heptan-6-yl]-7-azaspiro[3.5]nonan-2-yl]-4-oxo-quinazolin-6-yl]oxy-4-fluoro-phenyl]-3-methoxy-pyrrolidine-1-sulfonamide], in data set [1], the “BSEP Inhibition/IC50” value is listed as over 40000.

In the case of `COC1CN(S(=O)(=O)Nc2ccc(F)c(Oc3ccc4ncn(C5CC6(CCN(C7CC8(C7)CN(c7cc9c(cc7F)c(N7CCC(=O)NC7=O)nn9C)C8)CC6)C5)c(=O)c4c3)c2C#N)C1` (stereo not shown) [Compound 280, N-[2-cyano-3-[3-[7-[2-[3-(2,4-dioxohexahydropyrimidin-1-yl)-5-fluoro-1-methyl-indazol-6-yl]-2-azaspiro[3.3]heptan-6-yl]-7-azaspiro[3.5]nonan-2-yl]-4-oxo-quinazolin-6-yl]oxy-4-fluoro-phenyl]-3-methoxy-azetidine-1-sulfonamide], the “BSEP Inhibition/IC50” value in data set [1] is on record as 26550.

As to `CC(C)(C)c1nc(-c2cccc(NS(=O)(=O)c3c(F)cccc3F)c2F)c(-c2ccnc(N)n2)s1` [Dabrafenib, dabrafenib, reference compound], in data set [2] (setting [3]), the concentration at 6 h was determined as 157 ± 12.3 ng/g and the concentration at 12 h worked out at 19.2 ± 5.84 ng/g. In data set [2] (setting [4]), the concentration at 1 h stood at 276 ± 17.2 ng/mL, the concentration at 6 h was found to be 46.2 ± 5.05 ng/mL, the concentration at 12 h was 6.74 ± 2.73 ng/mL and the concentration at 24 h stood at 0.725 ± 0.11 ng/mL. In addition, in data set [2] (setting [5]), the concentration at 1 h turned out to be 225 ± 29.2 ng/g, the concentration at 6 h amounted to 32.8 ± 0.26 ng/g, the concentration at 12 h came out at 9.59 ± 1.68 ng/g and the concentration at 24 h amounted to 1.34 ± 0.369 ng/g.

For the compound `COC(=O)N[C@@H](C)CNc1nccc(-c2cn(C(C)C)nc2-c2cc(Cl)cc(NS(C)(=O)=O)c2F)n1` [Encorafenib, encorafenib, reference compound], in data set [2] (setting [6]), the concentration at 6 h was 375 ± 82 ng/g and the concentration at 12 h is 12.6 ± 5.14 ng/g. For the same compound, in data set [2] (setting [7]), the concentration at 1 h turned out to be 5720 ± 493 ng/mL, the concentration at 6 h was 654 ± 169 ng/mL, the concentration at 12 h was determined as 17.3 ± 7.09 ng/mL and the concentration at 24 h is 0.895 ng/mL. In data set [2] (setting [8]), the concentration at 1 h is 1250 ± 161 ng/g, the concentration at 6 h was 135 ± 22.8 ng/g, the concentration at 12 h amounted to 18.1 ± 7.47 ng/g and the concentration at 24 h amounted to 2.63 ± 0.386 ng/g.

For the origin of these results see US20260297060A1, “COMPOUNDS FOR THE DEGRADATION OF MUTANT BRAF” (C4 THERAPEUTICS, INC., priority 2023, published 2026).
